Assay results: patent US8952024B2, “Herbicidal pyrimidone derivatives” (E I du Pont de Nemours and Company, priority 2009, dated 2015)

Assays:
Assay in all cases: Test B pre-/postemergence plant response
Type in all cases: in vivo
[1] = system: downy bromegrass (Bromus tectorum)
Source text: (§1) Seeds of plant species selected from blackgrass (Alopecurus myosuroides), downy bromegrass (Bromus tectorum), green foxtail (Setaria viridis), Italian ryegrass (Lolium multiflorum), wheat (Triticum aestivum), wild oat (Avena fatua), deadnettle (henbit deadnettle, Lamium amplexicaule), galium (catchweed bedstraw, Galium aparine), bermudagrass (Cynodon dactylon), Surinam grass (Brachiaria decumbens), cocklebur (Xanthium strumarium), corn (Zea mays), large crabgrass (Digitaria sanguinalis), woolly cupgrass (Eriochloa villosa), giant foxtail (Setaria faberii), goosegrass (Eleusine indica), johnsongrass (Sorghum halepense), kochia (Kochia scoparia), lambsquarters (Chenopodium album), morningglory (Ipomoea coccinea), nightshade (eastern black nightshade, Solanum ptycanthum), yellow nutsedge (Cyperus esculentus), pigweed (Amaranthus retroflexus), ragweed (common ragweed, Ambrosia elatior), Russian thistle (Salsola kali), soybean (Glycine max), sunflower (common oilseed sunflower, Helianthus annuus) and velvetleaf (Abutilon theophrasti) were planted into a blend of loam soil and sand and treated preemergence with test compounds formulated in a non-phytotoxic solvent mixture which included a surfactant.
(§2) At the same time, plants selected from these crop and weed species and also winter barley (Hordeum vulgare), canarygrass (Phalaris minor), chickweed (Stellaria media) and windgrass (Apera spica-venti) were planted in pots containing Redi-Earth® planting medium (Scotts Company, 14111 Scottslawn Road, Marysville, Ohio 43041) comprising spaghnum peat moss, vermiculite, wetting agent and starter nutrients and treated with postemergence applications of some of the test chemicals formulated in the same manner. Plants ranged in height from 2 to 18 cm (1- to 4-leaf stage) for postemergence treatments.
(§3) Treated plants and controls were maintained in a greenhouse for 13 to 15 days, after which time all treated plants were visually evaluated and compared to controls. Plant response ratings, summarized in Table B, are based on a scale of 0 to 100 where 0 is no effect and 100 is complete control. A dash (-) response means no test result.

[2] = system: goosegrass (Eleusine indica)
Source text: as §1, §2, §3

corn (Zea mays) = system: corn (Zea mays)
Source text: as §1, §2, §3

soybean (Glycine max) = system: soybean (Glycine max)
Source text: as §1, §2, §3

[3] = system: Surinam grass (Brachiaria decumbens)
Source text: as §1, §2, §3

[4] = system: johnsongrass (Sorghum halepense)
Source text: as §1, §2, §3

[5] = system: blackgrass (Alopecurus myosuroides)
Source text: as §1, §2, §3

wild oat (Avena fatua) = system: wild oat (Avena fatua)
Source text: as §1, §2, §3

[6] = system: yellow nutsedge (Cyperus esculentus)
Source text: as §1, §2, §3

[7] = system: giant foxtail (Setaria faberii)
Source text: as §1, §2, §3

[8] = system: green foxtail (Setaria viridis)
Source text: as §1, §2, §3

[9] = system: woolly cupgrass (Eriochloa villosa)
Source text: as §1, §2, §3

[10] = system: cocklebur (Xanthium strumarium)
Source text: as §1, §2, §3

kochia (Kochia scoparia) = settings: Preemergence
Source text: as §1, §2, §3

[11] = system: velvetleaf (Abutilon theophrasti)
Source text: as §1, §2, §3

[12] = system: large crabgrass (Digitaria sanguinalis)
Source text: as §1, §2, §3

[13] = system: morningglory (Ipomoea coccinea)
Source text: as §1, §2, §3

[14] = 250 g ai/ha, Preemergence, 0 to 100 scale
[15] = Postemergence, 31 g ai/ha, scale 0 to 100 (0 no effect, 100 complete control)
[16] = Postemergence, 62 g ai/ha, scale 0 (no effect) to 100 (complete control), 13 to 15 days
[17] = Postemergence, 125 g ai/ha, visual rating after 13 to 15 days, scale 0 (no effect) to 100 (complete control)
[18] = Postemergence, 250 g ai/ha, scale 0 to 100
[19] = Preemergence, 31 g ai/ha, scale 0 to 100 (0 no effect, 100 complete control)
[20] = Preemergence, 62 g ai/ha, scale 0 to 100, 0 no effect, 100 complete control
[21] = Preemergence, 125 g ai/ha, 0 to 100 scale

O=C1CCCC([O-])=C1C(=O)c1cnc(-c2ccccc2)n(-c2ccccc2)c1=O.[K+] [Compound 14]
Plant response rating, Bromegrass, Downy [1, 14]: 0
Plant response rating, Bromegrass, Downy [1, 15]: 10
Plant response rating, Bromegrass, Downy [1, 16]: 30
Plant response rating, Bromegrass, Downy [1, 17]: 50
Bromegrass, Downy plant response rating [1, 18]: 70
Plant response rating, Bromegrass, Downy [1, 19]: 0
Plant response rating, Bromegrass, Downy [1, 20]: 0
Bromegrass, Downy plant response rating [1, 21]: 0
Plant response rating, Goosegrass [2, 14]: 100
Plant response rating, Goosegrass [2, 15]: 80
Plant response rating, Goosegrass [2, 16]: 80
Plant response rating, Goosegrass [2, 17]: 80
Goosegrass plant response rating [2, 18]: 85
Plant response rating, Goosegrass [2, 19]: 70
Goosegrass plant response rating [2, 21]: 98
Plant response rating, Corn (corn (Zea mays); [14]): 10
Plant response rating, Corn (corn (Zea mays); [15]): 10
Plant response rating, Corn (corn (Zea mays); [16]): 40
Plant response rating, Corn (corn (Zea mays); [17]): 45
Corn plant response rating (corn (Zea mays); [18]): 70
Plant response rating, Corn (corn (Zea mays); [19]): 0
Plant response rating, Corn (corn (Zea mays); [20]): 0
Corn plant response rating (corn (Zea mays); [21]): 0
Plant response rating, Soybean (soybean (Glycine max); [14]): 85
Plant response rating, Soybean (soybean (Glycine max); [15]): 80
Plant response rating, Soybean (soybean (Glycine max); [16]): 85
Plant response rating, Soybean (soybean (Glycine max); [17]): 90
Soybean plant response rating (soybean (Glycine max); [18]): 90
Plant response rating, Soybean (soybean (Glycine max); [19]): 25
Soybean plant response rating (soybean (Glycine max); [21]): 50
Plant response rating, Surinam Grass [3, 14]: 80
Plant response rating, Surinam Grass [3, 15]: 40
Plant response rating, Surinam Grass [3, 16]: 50
Plant response rating, Surinam Grass [3, 17]: 50
Surinam Grass plant response rating [3, 18]: 55
Plant response rating, Surinam Grass [3, 19]: 0
Plant response rating, Surinam Grass [3, 20]: 5
Surinam Grass plant response rating [3, 21]: 60
Plant response rating, Johnsongrass [4, 14]: 95
Plant response rating, Johnsongrass [4, 15]: 45
Plant response rating, Johnsongrass [4, 16]: 80
Plant response rating, Johnsongrass [4, 17]: 80
Johnsongrass plant response rating [4, 18]: 80
Plant response rating, Johnsongrass [4, 19]: 5
Plant response rating, Johnsongrass [4, 20]: 30
Johnsongrass plant response rating [4, 21]: 80
Plant response rating, Blackgrass [5, 14]: 0
Plant response rating, Blackgrass [5, 15]: 0
Plant response rating, Blackgrass [5, 16]: 0
Plant response rating, Blackgrass [5, 17]: 5
Blackgrass plant response rating [5, 18]: 5
Plant response rating, Blackgrass [5, 19]: 0
Plant response rating, Blackgrass [5, 20]: 0
Blackgrass plant response rating [5, 21]: 0
Plant response rating, Oat, Wild (wild oat (Avena fatua); [14]): 0
Plant response rating, Oat, Wild (wild oat (Avena fatua); [15]): 30
Plant response rating, Oat, Wild (wild oat (Avena fatua); [16]): 40
Plant response rating, Oat, Wild (wild oat (Avena fatua); [17]): 50
Oat, Wild plant response rating (wild oat (Avena fatua); [18]): 50
Plant response rating, Oat, Wild (wild oat (Avena fatua); [19]): 0
Plant response rating, Oat, Wild (wild oat (Avena fatua); [20]): 0
Oat, Wild plant response rating (wild oat (Avena fatua); [21]): 0
Plant response rating, Nutsedge, Yellow [6, 14]: 85
Plant response rating, Nutsedge, Yellow [6, 15]: 20
Plant response rating, Nutsedge, Yellow [6, 16]: 30
Plant response rating, Nutsedge, Yellow [6, 17]: 30
Nutsedge, Yellow plant response rating [6, 18]: 50
Plant response rating, Nutsedge, Yellow [6, 19]: 0
Plant response rating, Nutsedge, Yellow [6, 20]: 30
Nutsedge, Yellow plant response rating [6, 21]: 40
Plant response rating, Foxtail, Giant [7, 14]: 90
Plant response rating, Foxtail, Giant [7, 15]: 50
Plant response rating, Foxtail, Giant [7, 16]: 70
Plant response rating, Foxtail, Giant [7, 17]: 80
Foxtail, Giant plant response rating [7, 18]: 95
Plant response rating, Foxtail, Giant [7, 19]: 0
Plant response rating, Foxtail, Giant [7, 20]: 10
Foxtail, Giant plant response rating [7, 21]: 75
Plant response rating, Foxtail, Green [8, 14]: 60
Plant response rating, Foxtail, Green [8, 15]: 45
Plant response rating, Foxtail, Green [8, 16]: 45
Plant response rating, Foxtail, Green [8, 17]: 50
Foxtail, Green plant response rating [8, 18]: 85
Plant response rating, Foxtail, Green [8, 19]: 0
Plant response rating, Foxtail, Green [8, 20]: 0
Foxtail, Green plant response rating [8, 21]: 10
Plant response rating, Cupgrass, Woolly [9, 14]: 70
Plant response rating, Cupgrass, Woolly [9, 15]: 50
Plant response rating, Cupgrass, Woolly [9, 16]: 80
Plant response rating, Cupgrass, Woolly [9, 17]: 80
Cupgrass, Woolly plant response rating [9, 18]: 80
Plant response rating, Cupgrass, Woolly [9, 19]: 0
Plant response rating, Cupgrass, Woolly [9, 20]: 5
Cupgrass, Woolly plant response rating [9, 21]: 50
Plant response rating, Cocklebur [10, 14]: 95
Plant response rating, Cocklebur [10, 15]: 80
Plant response rating, Cocklebur [10, 16]: 90
Plant response rating, Cocklebur [10, 17]: 90
Cocklebur plant response rating [10, 18]: 98
Plant response rating, Cocklebur [10, 19]: 0
Plant response rating, Cocklebur [10, 20]: 85
Cocklebur plant response rating [10, 21]: 85
Plant response rating, Kochia (kochia (Kochia scoparia); 250 g ai/ha, 0 to 100 scale): 100
Plant response rating, Kochia (kochia (Kochia scoparia); 31 g ai/ha, scale 0 to 100 (0 no effect, 100 complete control)): 85
Plant response rating, Kochia (kochia (Kochia scoparia); 62 g ai/ha, scale 0 to 100, 0 no effect, 100 complete control): 100
Kochia plant response rating (kochia (Kochia scoparia); 125 g ai/ha, 0 to 100 scale): 100
Plant response rating, Velvetleaf [11, 14]: 100
Plant response rating, Velvetleaf [11, 15]: 85
Plant response rating, Velvetleaf [11, 16]: 90
Plant response rating, Velvetleaf [11, 17]: 90
Velvetleaf plant response rating [11, 18]: 100
Plant response rating, Velvetleaf [11, 19]: 70
Plant response rating, Velvetleaf [11, 20]: 98
Velvetleaf plant response rating [11, 21]: 100
Plant response rating, Crabgrass, Large [12, 14]: 100
Plant response rating, Crabgrass, Large [12, 15]: 50
Plant response rating, Crabgrass, Large [12, 16]: 55
Plant response rating, Crabgrass, Large [12, 17]: 85
Crabgrass, Large plant response rating [12, 18]: 85
Plant response rating, Crabgrass, Large [12, 19]: 5
Plant response rating, Crabgrass, Large [12, 20]: 50
Crabgrass, Large plant response rating [12, 21]: 100
Plant response rating, Morningglory [13, 14]: 100
Plant response rating, Morningglory [13, 15]: 70
Plant response rating, Morningglory [13, 16]: 70
Plant response rating, Morningglory [13, 17]: 80
Morningglory plant response rating [13, 18]: 95
Plant response rating, Morningglory [13, 19]: 100
Plant response rating, Morningglory [13, 20]: 100
Morningglory plant response rating [13, 21]: 100
